# US9862697B2, “pH-sensitive fluorescent sensors for biological amines” (The Curators of the University of Missouri, priority 2013, dated 2018)
# Marks after values point to notes of the source that are not given here.
# Experiments:
# [1] = pH titration of sensor (absorbance and fluorescence monitored), pKa; type: physicochemical; settings: buffered solution of the sensor; unbound sensor; pH and fluorescence intensity data fit to a pH isotherm
# Method: (§1) The spectroscopic properties of several exemplary inventive sensors have been examined, along with the starting compound 1, as 7-hydroxycoumarins are well known for their pH-sensitivity. First, the acidity of the sensors was discerned by performing pH titrations where aliquots of aqueous HCl were added to a buffered solution of the sensor and the absorbance and fluorescence were monitored. The pKa of the pH-sensitive unit is related to the donating ability of the sulfonamide substituent. ES517 has a dimethylamino-substituent on the sulfonamide which is the best electron-donor into the sulfonyl motif. This makes deprotonation of the N—H proton located at the 7-position of the coumarin core the least favorable and therefore the least acidic. The pH and fluorescence intensity data were fit to a pH isotherm and the pKa was determined to be 6.3. As the donating ability of the sulfonamide substituent into the sulfonyl motif worsened, the acidity of the N—H proton located at the 7-position of the coumarin core increased. The aromatic substituents are the least electron donating substituents into the sulfonyl motif which explains the greater acidity. By using a single coupling reaction, the pKa of the sensor may be tuned to fit the parameters of the experiment.
# [2] = Spectroscopic properties of unbound sensors; type: physicochemical; design: λmax (GH) / λmax (G-): unit not given here; settings: for λem (ex: 488 nm): excitation 488 nm; for λmax (G-) / λmax (GH): unbound sensor; for λmax (G-): deprotonated form G-; for λmax (GH): protonated form GH
# Method: as §1
# (§2) Table 1 summarizes the spectroscopic properties of the tested compounds in pH varying environments, mimicking the vesicular and synaptic cleft conditions.
# [3] = Fluorescence at pH 7.4 vs 5.0 of sensor saturated with glutamate
# Method: Next, the sensor was saturated with 300 mM glutamate in order to mimic vesicular conditions. The fluorescence intensity of the bound complex was then monitored between the pH values of 5 and 7.4, the acidities associated with the synaptic vesicle and synaptic cleft, respectively. An excitation wavelength of 488 nm was used because it is far enough to the red to ensure that only the bound, deprotonated sensor was excited. It is also a common wavelength used in fluorescence microscopy cell studies. The fluorescence intensity increased for all sensors upon basification from pH 5 to 7.4, however the sensors with the highest pKa values gave the greatest enhancements.
# as §2
# [4] = Fluorescence at pH 7.4 vs 5.0 of ES517 saturated with GABA; settings: ES517 20 μM saturated with 300 mM GABA
# Text: (§3) The ES517 was further analyzed for binding and spectroscopic properties with the common neurotransmitters other than glutamate released upon exocytosis. […] The aromatic neurotransmitters dampened the fluorescence turn-on response of the inventive sensors due to the electron-rich nature of catecholamines (norepinephrine and dopamine) and indoleamines (serotonin).
# [5] = Fluorescence at pH 7.4 vs 5.0 of ES517 saturated with glycine; settings: ES517 20 μM saturated with 300 mM glycine
# Text: as §3
# [6] = Fluorescence at pH 7.4 vs 5.0 of ES517 saturated with norepinephrine; settings: ES517 20 μM saturated with 100 mM norepinephrine
# Text: as §3
# [7] = Fluorescence at pH 7.4 vs 5.0 of ES517 saturated with dopamine; settings: ES517 20 μM saturated with 100 mM dopamine
# Text: as §3
# [8] = Binding study (fluorescence titration) of ES517 with glutamate
# Method: While low, this binding constant is believed to be preferred for reversible binding due to the high millimolar concentration of glutamate in a vesicle (˜300 mM).
# [9] = Binding study (fluorescence titration) of ES517 with GABA
# [10] = Binding study (fluorescence titration) of ES517 with glycine
# [11] = Binding study (fluorescence titration) of ES517 with norepinephrine
# [12] = Binding study (fluorescence titration) of ES517 with dopamine
# [13] = Binding study (fluorescence titration) of ES517 with serotonin
# [14] = pKa and absorbance of the bound sensor (ES517 saturated with glutamate) over a wide pH range; type: physicochemical
# Text: ES517 was saturated with glutamate and the spectroscopic properties measured over a wide pH range. The protonated form of the bound sensor (FIG. 4, structure B) absorbed at 368 nm. […] The 428 nm band was assigned to the unbound deprotonated form of the sensor (structure C). The 458 nm band therefore represents the bound, deprotonated sensor (structure D). The plot of pH vs. intensity was fit to a pH isotherm and the pKa determined to be 6.3.
# [15] = sensor saturated with 0.3M glutamate, intensities monitored at pH 5.0 and 7.4
# [16] = ES517 20 μM, buffered, pH 7.4, ±10% error
# [17] = fluorescence enhancement upon binding at pH 7.4, λem = 517 nm
compound,measurement,setting,value
O=Cc1c(-c2ccccc2)c2ccc(NS(=O)(=O)c3cccs3)cc2oc1=O,pKa,[1],5.2
same,λem (ex: 488 nm),[2],494 nm
same,λmax (G-),[2],416
same,λmax (GH),[2],366
same,IpH 7.4/IpH 5,[3]; [15],2.5
O=Cc1c(-c2ccccc2)c2ccc(O)cc2oc1=O,pKa,[1],5.8
same,λem (ex: 488 nm),[2],468 nm
same,λmax (G-),[2],420
same,λmax (GH),[2],368
same,IpH 7.4/IpH 5,[3]; [15],3.3
CN(C)S(=O)(=O)Nc1ccc2c(-c3ccccc3)c(C=O)c(=O)oc2c1 [ES517],pKa,[1],6.3
same,λem (ex: 488 nm),[2],498 nm
same,λmax (G-),[2],419
same,λmax (GH),[2],368
same,IpH 7.4/IpH 5,"[3]; ES517 20 μM saturated with 300 mM glutamate, fluorescence at pH 7.4 vs. 5.0",12^d
same,IpH 7.4/IpH 5,[3]; [15],12
same,IpH 7.4/IpH 5,[4],11 ^d
same,IpH 7.4/IpH 5,[5],10 ^d
same,IpH 7.4/IpH 5,[6],5.3 ^e
same,IpH 7.4/IpH 5,[7],5.5 ^e
same,Ka,"[8]; glutamate, ES517 20 μM, 50 mM bis-tris propane, 50 mM Na2S2O3, 1% DMSO, pH 7.4, ±10% error",8.6 M⁻¹
same,Isat/I0,"[8]; glutamate, fluorescence enhancement upon binding at pH 7.4, Isat from theoretical max of binding isotherm, λem = 517 nm",12
same,fluorescence enhancement upon binding to glutamate,"[8]; titration with glutamate, excitation 488 nm",12 fold
same,Ka,[9]; [16],8.3 M⁻¹
same,Isat/I0,[9]; [17],27
same,Ka,[10]; [16],9.2 M⁻¹
same,Isat/I0,[10]; [17],25
same,Ka,[11]; [16],49 M⁻¹
same,Isat/I0,[11]; [17],14
same,Ka,[12]; [16],55 M⁻¹
same,Isat/I0,[12]; [17],10
same,Ka,[13]; [16],54 M⁻¹
same,Isat/I0,[13]; [17],0.5
same,absorbance of protonated form of the bound sensor (structure B),[14],368 nm
same,"absorbance band of bound, deprotonated sensor (structure D)",[14]; upon deprotonation,458 nm
same,absorbance band of unbound deprotonated form of the sensor (structure C),[14]; upon deprotonation,428 nm
CS(=O)(=O)Nc1ccc2c(-c3ccccc3)c(C=O)c(=O)oc2c1,pKa,[1],5.9
same,λem (ex: 488 nm),[2],489 nm
same,λmax (G-),[2],420
same,λmax (GH),[2],365
same,IpH 7.4/IpH 5,[3]; [15],5.5
